Test results from patent publication US7767664B2, “Plant growth regulation” (Bayer CropScience AG, priority 2004, dated 2010).

Tests used:
[1] = system: wheat (Triticum aestivum, variety “TRISO”); test: Root growth assay, wheat seed treatment; assay type: in vivo; details: Root Growth of 100 is set as the standard, wet root weight 16 days post treatment
Description: Plant roots are a highly proliferative tissue that allows an easy accessible, cheap and short term screening method for plant growth regulators. The results obtained can easily be transferred to the overall effects on a plant of plant growth regulators identified by such a system. By using this root assay one is enabled to determine the effect of a seed treatment to root growth and/or germination and/or changes in habitat of germinated plants in order to identify the possible use as a yield enhancer. Two seeds of wheat (Triticum aestivum, variety “TRISO”) or 1 seed of maize (Zea mays, variety “LORENZO”) per hole in a plastic tray which contains an architecture of 8×13 holes were placed on compost soil covered with sand. These seeds were treated with 100 μl/hole, which creates an application volume of approx. 1200 l/ha, of a compound solution at active ingredient rates equivalent to 100, 10 and 1 g a.i./ha of each compound using an robotic application system (Lizzy Spray Robotics). Six replicates in a row of each compound and concentration were done. The outer rim of the above defined plastic tray was untreated to avoid false negative effects and the middle row (No. 7) was used as untreated control. The treated seeds were allowed to dry for approx. 4 hours and subsequently covered with sand and watered. The trays were stored in climate chambers with 14 hours lighting at a temperature of 24° C. (±2) at daytime and 16° C. (±2) at night and relative humidity (rH) of 60% and daily watered. Assessments were done 16 (±2) days post treatment by counting the germinated plants and assessing the phytotoxicity symptoms and percentage. In addition, the roots were washed out and the shoots were cut directly above the seed and the wet roots were placed on dry paper towels for approximately 30 minutes and weighted afterwards. This procedure provides a similar grade of moisture to the roots so that a comparison of the weights is possible.
The effects observed concerning Root Growth given in column 2 (Root Growth of “100” is set as the standard) are directed to concentrations that are equivalent to 100, 10, 1 g a.i./ha, each.

[2] = system: maize (Zea mays, variety “LORENZO”); test: Root growth assay, maize seed treatment; assay type: in vivo; details: Root Growth of 100 is set as the standard, wet root weight 16 days post treatment
Description: Plant roots are a highly proliferative tissue that allows an easy accessible, cheap and short term screening method for plant growth regulators. […] By using this root assay one is enabled to determine the effect of a seed treatment to root growth and/or germination and/or changes in habitat of germinated plants in order to identify the possible use as a yield enhancer. Two seeds of wheat (Triticum aestivum, variety “TRISO”) or 1 seed of maize (Zea mays, variety “LORENZO”) per hole in a plastic tray which contains an architecture of 8×13 holes were placed on compost soil covered with sand. […] Six replicates in a row of each compound and concentration were done. The outer rim of the above defined plastic tray was untreated to avoid false negative effects and the middle row (No. 7) was used as untreated control. The treated seeds were allowed to dry for approx. 4 hours and subsequently covered with sand and watered. The trays were stored in climate chambers with 14 hours lighting at a temperature of 24° C. (±2) at daytime and 16° C. (±2) at night and relative humidity (rH) of 60% and daily watered. Assessments were done 16 (±2) days post treatment by counting the germinated plants and assessing the phytotoxicity symptoms and percentage. In addition, the roots were washed out and the shoots were cut directly above the seed and the wet roots were placed on dry paper towels for approximately 30 minutes and weighted afterwards. This procedure provides a similar grade of moisture to the roots so that a comparison of the weights is possible.

Row | SMILES | Root Growth ([1]; 1 g a.i./ha) | Root Growth ([1]; 10 g a.i./ha) | Root Growth ([1]; 100 g a.i./ha) | Root Growth ([2]; 1 g a.i./ha) | Root Growth ([2]; 10 g a.i./ha) | Root Growth ([2]; 100 g a.i./ha)
1 | COc1cc2c(cc1OC)C(=O)CCC(=O)N2 [Compound 3.2, 7,8-Dimethoxy-1H-benzazepine-2,5 (3H, 4H)-dione] | 133 | 131 | 98 | 96 | 89 | 123
2 | O=C1CCC(=O)c2cc(Cl)ccc2N1 [Compound 3.4] | 125 | 126 | 195 | 85 | 121 | 144
3 | O=C1CCC(=O)c2ccccc2N1 [Compound 3.1] | 98 | 125 | 135 | 86 | 150 | 86
4 | CCNC(=S)NN=C1CCC(=O)Nc2cc(OC)c(OC)cc21 [Compound 4.5] | 149 | 106 | 79 |  |  | 
5 | O=C1CCC(=NNc2cc(Cl)cc(Cl)c2)c2cc(Br)ccc2N1 [Compound 4.1] |  |  |  | 131 | 102 | 136
